The record followed here is patent US9969694B2, “N-(arylalkyl)-N′-pyrazolyl-urea, thiourea, guanidine and cyanoguanidine compounds as TrkA kinase inhibitors” (Array BioPharma Inc., priority 2012, dated 2018).

For this assay, the target named is T1, His-tagged recombinant human TrkA (Homo sapiens, UniProt P04629).
T1 construct: 6HIS tagged cytoplasmic domain from Invitrogen, Catalog No. PV3144; purchased Invitrogen PV3144
T1 sequence (P04629 440-796 limits assumed): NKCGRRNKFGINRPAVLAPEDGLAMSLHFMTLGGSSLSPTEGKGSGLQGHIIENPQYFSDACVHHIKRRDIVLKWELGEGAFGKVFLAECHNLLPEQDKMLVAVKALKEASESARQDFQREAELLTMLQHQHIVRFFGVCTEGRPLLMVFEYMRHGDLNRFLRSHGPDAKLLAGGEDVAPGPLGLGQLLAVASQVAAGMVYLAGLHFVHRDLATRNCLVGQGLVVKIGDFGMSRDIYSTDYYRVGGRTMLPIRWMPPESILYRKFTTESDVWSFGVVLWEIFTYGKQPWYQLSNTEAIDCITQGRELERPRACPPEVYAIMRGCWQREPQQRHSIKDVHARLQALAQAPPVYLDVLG
The assay is described as follows: TrkA Kinase Binding Assay (LanthaScreen Eu). The settings on record: averaged IC50; TR-FRET binding, 60 min, 22° C.; read-out: TrkA Enzyme IC50. As for the experimental part: TrkA binding activity was determined in a TrkA LanthaScreen™ Eu Kinase Binding Assay. 5 nM His-tagged recombinant human TrkA (6HIS tagged cytoplasmic domain from Invitrogen, Catalog No. PV3144) was incubated with 4 nM Alexa-Fluor® Tracer 236 (Invitrogen Cat. No. PV5592), 2 nM biotinylated anti-His (Invitrogen Cat. No. PV6090), and 2 nM europium-labeled Streptavidin (Invitrogen Cat. No. PV5899), in buffer (25 mM MOPS, pH 7.5, 5 mM MgCl2, 0.005% Triton X-100). Three fold serial dilutions of compounds of the invention in DMSO were added to a final percentage of 2% DMSO. After 60-minute incubation at 22° C., the reaction was measured using the EnVision mutlimode plate reader (PerkinElmer) via TR-FRET dual wavelength detection at […]. The percent of control was calculated using a ratiometric emission factor. The IC50 values were determined by fitting a four parameter model to the percent of control data.
Table A provides averaged IC50 values for compounds of the invention when tested in the assay of Example A, where A represents an averaged IC50 value <100 nM; B represents an averaged IC50 value from 100 to 1,000 nM; and C represents an average 1050 value above 1000 nM.
(In general: Time-resolved FRET reads energy transfer from a long-lived donor to a nearby acceptor.)
One may read the IC50 as the concentration that gives 50% inhibition. For “5-(3-(2-(difluoromethoxy)-5-(methoxymethyl)benzyl)ureido)-N,4-dimethyl-1-phenyl-1H-pyrazole-3-carboxamide [Example 51]”, the IC50 was less than 100 nM.
As for `COCc1ccc(C2CC2)c(CNC(=O)Nc2c(C)c(-c3cnc(C)nc3)nn2-c2ccccc2)c1` [Example 1, 1-(2-cyclopropyl-5-(methoxymethyl)benzyl)-3-(4-methyl-3-(2-methylpyrimidin-5-yl)-1-phenyl-1H-pyrazol-5-yl)urea], the IC50 is less than 100 nM.
Take `CCOc1nn(-c2ccccc2)c(NC(=O)NCc2cc(COC)ccc2C2CC2)c1C` [Example 2, 1-(2-cyclopropyl-5-(methoxymethyl)benzyl)-3-(3-ethoxy-4-methyl-1-phenyl-1H-pyrazol-5-yl)urea]: the IC50 was less than 100 nM.
Next, `COCc1ccc(C2CC2)c(CNC(=O)Nc2c(C)c(-c3ccc(C)nc3)nn2-c2ccccc2)c1` [Example 3, 1-(2-cyclopropyl-5-(methoxymethyl)benzyl)-3-(4-methyl-3-(6-methylpyridin-3-yl)-1-phenyl-1H-pyrazol-5-yl)urea]: less than 100 nM.
Next, `COCc1ccc(C2CC2)c(CNC(=O)Nc2c(C)c(-c3ccc(=O)n(C)c3)nn2-c2ccccc2)c1` [Example 4, 1-(2-cyclopropyl-5-(methoxymethyl)benzyl)-3-(4-methyl-3-(1-methyl-6-oxo-1,6-dihydropyridin-3-yl)-1-phenyl-1H-pyrazol-5-yl)urea]: less than 100 nM.
In the case of `COCc1ccc(C2CC2)c(CNC(=O)Nc2c(C)c(C)nn2-c2ccccc2)c1` [Example 5, 1-(2-cyclopropyl-5-(methoxymethyl)benzyl)-3-(3,4-dimethyl-1-phenyl-1H-pyrazol-5-yl)urea] it was less than 100 nM; in that of `COCc1ccc(C2CC2)c(CNC(=O)Nc2c(C)c(-c3cnn(C)c3)nn2-c2ccccc2)c1` [Example 6, 1-(2-cyclopropyl-5-(methoxymethyl)benzyl)-3-(1′,4-dimethyl-1-phenyl-1H,1′H-[3,4′-bipyrazol]-5-yl)urea], less than 100 nM.
On to `COCc1ccc(C2CC2)c(CNC(=O)Nc2c(C)c(-c3ccn(C)c(=O)c3)nn2-c2ccccc2)c1` [Example 7, 1-(2-cyclopropyl-5-(methoxymethyl)benzyl)-3-(4-methyl-3-(1-methyl-2-oxo-1,2-dihydropyridin-4-yl)-1-phenyl-1H-pyrazol-5-yl)urea], for which the IC50 is less than 100 nM.
As to `COCc1ccc(C2CCC2)c(CNC(=O)Nc2c(C)c(-c3ccc(C)nc3)nn2-c2ccccc2)c1` [Example 8, 1-(2-cyclobutyl-5-(methoxymethyl)benzyl)-3-(4-methyl-3-(6-methylpyridin-3-yl)-1-phenyl-1H-pyrazol-5-yl)urea], the IC50 is less than 100 nM.
Next, `COCc1ccc(C2CCC2)c(CNC(=O)Nc2c(C)c(-c3ccc(=O)n(C)c3)nn2-c2ccccc2)c1` [Example 9, 1-(2-cyclobutyl-5-(methoxymethyl)benzyl)-3-(4-methyl-3-(1-methyl-6-oxo-1,6-dihydropyridin-3-yl)-1-phenyl-1H-pyrazol-5-yl)urea]: less than 100 nM; `COCc1ccc(C2CCC2)c(CNC(=O)Nc2c(C)c(-c3cnn(C)c3)nn2-c2ccccc2)c1` [Example 11, 1-(2-cyclobutyl-5-(methoxymethyl)benzyl)-3-(1′,4-dimethyl-1-phenyl-1H,1′H-[3,4′-bipyrazol]-5-yl)urea]: less than 100 nM; `COCc1ccc(C2CCCC2)c(CNC(=O)Nc2c(C)c(-c3cnc(C)nc3)nn2-c2ccccc2)c1` [Example 12, 1-(2-cyclopentyl-5-(methoxymethyl)benzyl)-3-(4-methyl-3-(2-methylpyrimidin-5-yl)-1-phenyl-1H-pyrazol-5-yl)urea]: less than 100 nM.
On to `COCc1ccc(C2CCCC2)c(CNC(=O)Nc2c(C)c(-c3ccc(C)nc3)nn2-c2ccccc2)c1` [Example 13, 1-(2-cyclopentyl-5-(methoxymethyl)benzyl)-3-(4-methyl-3-(6-methylpyridin-3-yl)-1-phenyl-1H-pyrazol-5-yl)urea], for which the 50% inhibitory concentration (IC50) was less than 100 nM.
For `COCc1ccc(OCC2CC2)c(CNC(=O)Nc2c(C)c(-c3cnn(C)c3)nn2-c2ccccc2)c1` [Example 14, 1-(2-(cyclopropylmethoxy)-5-(methoxymethyl)benzyl)-3-(1′,4-dimethyl-1-phenyl-1H,1′H-[3,4′-bipyrazol]-5-yl)urea], the IC50 is less than 100 nM.
As to `CCOc1ccc(C2CC2)c(CNC(=O)Nc2c(C)c(-c3cnn(C)c3)nn2-c2ccccc2)c1` [Example 15, 1-(2-cyclopropyl-5-ethoxybenzyl)-3-(1′,4-dimethyl-1-phenyl-1H,1′H-[3,4′-bipyrazol]-5-yl)urea], the 50% inhibitory concentration (IC50) was less than 100 nM.
For the molecule `COC(C)c1ccc(C2CCC2)c(CNC(=O)Nc2c(C)c(-c3cnc(C)nc3)nn2-c2ccccc2)c1` (centres unmarked) [Example 16, 1-(2-cyclobutyl-5-(1-methoxyethyl)benzyl)-3-(4-methyl-3-(2-methylpyrimidin-5-yl)-1-phenyl-1H-pyrazol-5-yl)urea], the half-maximal inhibitory concentration (IC50) lay in the range of 100 to 1000 nM.
As to `CCOc1ccc(COC)cc1CNC(=O)Nc1c(C)c(-c2cnn(C)c2)nn1-c1ccccc1` [Example 17, 1-(1′,4-dimethyl-1-phenyl-1H,1′H-[3,4′-bipyrazol]-5-yl)-3-(2-ethoxy-5-(methoxymethyl)benzyl)urea], the IC50 is less than 100 nM.
On to `COCc1ccc(OC2CCC2)c(CNC(=O)Nc2c(C)c(-c3cnn(C)c3)nn2-c2ccccc2)c1` [Example 18, 1-(2-cyclobutoxy-5-(methoxymethyl)benzyl)-3-(1′,4-dimethyl-1-phenyl-1H,1′H-[3,4′-bipyrazol]-5-yl)urea], for which the IC50 is 100 to 1000 nM.
`COCc1ccc(OC2CCC2)c(CNC(=O)Nc2c(C)c(-c3ccc(C)nc3)nn2-c2ccccc2)c1` [Example 19, 1-(2-cyclobutoxy-5-(methoxymethyl)benzyl)-3-(4-methyl-3-(6-methylpyridin-3-yl)-1-phenyl-1H-pyrazol-5-yl)urea]: the IC50 was less than 100 nM.
With `COCc1ccc(OC(F)F)c(CNC(=O)Nc2c(C)c(-c3cnn(C)c3)nn2-c2ccccc2)c1` [Example 20, 1-(2-(difluoromethoxy)-5-(methoxymethyl)benzyl)-3-(1′,4-dimethyl-1-phenyl-1H,1′H-[3,4′-bipyrazol]-5-yl)urea], the IC50 was less than 100 nM.
In the case of `COCc1ccc(OC(F)F)c(CNC(=O)Nc2c(C)c(-c3ccc(C)nc3)nn2-c2ccccc2)c1` [Example 21, 1-(2-(difluoromethoxy)-5-(methoxymethyl)benzyl)-3-(4-methyl-3-(6-methylpyridin-3-yl)-1-phenyl-1H-pyrazol-5-yl)urea] it was less than 100 nM; in that of `COCc1ccc(OC(F)(F)F)c(CNC(=O)Nc2c(C)c(-c3cnn(C)c3)nn2-c2ccccc2)c1` [Example 22, 1-(1′,4-dimethyl-1-phenyl-1H,1′H-[3,4′-bipyrazol]-5-yl)-3-(5-(methoxymethyl)-2-(trifluoromethoxy)benzyl)urea], 100 to 1000 nM.
In the case of `COCc1ccc(OC(F)(F)F)c(CNC(=O)Nc2c(C)c(-c3ccc(C)nc3)nn2-c2ccccc2)c1` [Example 23, 1-(5-(methoxymethyl)-2-(trifluoromethoxy)benzyl)-3-(4-methyl-3-(6-methylpyridin-3-yl)-1-phenyl-1H-pyrazol-5-yl)urea] it was less than 100 nM; in that of `COCc1ccc(C2(OC)CCC2)c(CNC(=O)Nc2c(C)c(-c3ccc(C)nc3)nn2-c2ccccc2)c1` [Example 24, 1-(2-(1-methoxycyclobutyl)-5-(methoxymethyl)benzyl)-3-(4-methyl-3-(6-methylpyridin-3-yl)-1-phenyl-1H-pyrazol-5-yl)urea], 100 to 1000 nM.
For `COCc1ccc(C2CC2(F)F)c(CNC(=O)Nc2c(C)c(-c3cnn(C)c3)nn2-c2ccccc2)c1` (centres unmarked) [Example 25, 1-(2-(2,2-difluorocyclopropyl)-5-(methoxymethyl)benzyl)-3-(1′,4-dimethyl-1-phenyl-1H,1′H-[3,4′-bipyrazol]-5-yl)urea 2,2,2-trifluoroacetate], the IC50 was less than 100 nM.
Turning to `COCc1cccc(C(NC(=O)Nc2c(C)c(-c3ccc(=O)n(C)c3)nn2-c2ccccc2)C2CC2)c1` (centres unmarked) [Example 26, 1-(cyclopropyl(3-(methoxymethyl)phenyl)methyl)-3-(4-methyl-3-(1-methyl-6-oxo-1,6-dihydropyridin-3-yl)-1-phenyl-1H-pyrazol-5-yl)urea], the IC50 was 100 to 1000 nM.
In the case of `COCc1cccc(C(NC(=O)Nc2c(C)c(-c3ccn(C)c(=O)c3)nn2-c2ccccc2)C2CC2)c1` (centres unmarked) [Example 27, 1-(cyclopropyl(3-(methoxymethyl)phenyl)methyl)-3-(4-methyl-3-(1-methyl-2-oxo-1,2-dihydropyridin-4-yl)-1-phenyl-1H-pyrazol-5-yl)urea] it was 100 to 1000 nM; in that of `COCc1cccc(C(NC(=O)Nc2c(C)c(-c3cnn(C)c3)nn2-c2ccccc2)C2CC2)c1` (centres unmarked) [Example 28, 1-(cyclopropyl(3-(methoxymethyl)phenyl)methyl)-3-(1′,4-dimethyl-1-phenyl-1H,1′H-[3,4′-bipyrazol]-5-yl)urea], 100 to 1000 nM; in that of `COCc1cccc(C(C)NC(=O)Nc2c(C)c(-c3cnn(C)c3)nn2-c2ccccc2)c1` (centres unmarked) [Example 29, 1-(1′,4-dimethyl-1-phenyl-1H,1′H-[3,4′-bipyrazol]-5-yl)-3-(1-(3-(methoxymethyl)phenyl)ethyl)urea 2,2,2-trifluoroacetate], 100 to 1000 nM.
